These results are taken from ChEMBL document CHEMBL5537151, “Design, synthesis and bioactivity evaluation of novel fusion peptides and their CPT conjugates inducing effective anti-tumor responses on HER2 positive tumors” (Eur J Med Chem, 2024).

Data set [1] is described as follows: Cytotoxicity against HER-negative human MCF-10A cells incubated for 48 hrs by CCK-8 assay. In kind it is toxicity, cell-based. (In general: Tetrazolium assays rely on reduction of a dye to a coloured formazan, in cell work by metabolically active cells.)
Data set [2] concerns SK-BR-3. Kind of data set: Induction of apoptosis in human SK-BR-3 cells assessed as late apoptotic cells at 1 uM incubated for 24 hrs by Annexin V-FITC/PI staining based flow cytometry analysis (reference value: 1.11%). In kind it is functional. For orientation: In flow cytometry, cells or beads pass a laser one at a time.
In data set [3] the test system is SK-BR-3. Kind of data set: Induction of apoptosis in human SK-BR-3 cells assessed as necrotic cells at 1 uM incubated for 24 hrs by Annexin V-FITC/PI staining based flow cytometry analysis (reference value: 1.49%). In kind it is functional.
The test system of data set [4] is SK-BR-3. The experiment in a line: Antitumor activity against human SK-BR-3 cells xenografted in nude mouse assessed as inhibition of tumor growth at 8 umol/kg, iv administered every 3 days for 14 days and measured every 2 days by vernier caliper analysis. In kind it is functional, organism-based. Conditions: dose 8.0 µmol/kg, time 14.0 day. In general terms: A xenograft is tissue or cells of one species grown in another, often human tumour cells in immunodeficient mice.

Data set [5] is described as follows: Toxicity in nude mouse xenografted with human SK-BR-3 cells assessed as increase in AST level at 8 umol/kg, iv administered every 3 days for 14 days. In kind it is organism-based. Particulars: in vivo, 336 h, dose 8 µmol/kg, time 14 day.
The nature of data set [6]: Toxicity in nude mouse xenografted with human SK-BR-3 cells assessed as change in creatinine level at 8 umol/kg, iv administered every 3 days for 14 days. In kind it is organism-based. Particulars: in vivo, 336 h, dose 8 µmol/kg, time 14 day.
The nature of data set [7]: Toxicity in nude mouse xenografted with human SK-BR-3 cells assessed as change in albumin level at 8 umol/kg, iv administered every 3 days for 14 days. In kind it is organism-based. Conditions: in vivo, 336 h, dose 8 µmol/kg, time 14 day.
A short description of data set [8]: Toxicity in nude mouse xenografted with human SK-BR-3 cells assessed as cell necrosis in heart at 8 umol/kg, iv administered every 3 days for 14 days by H and E staining based analysis. In kind it is organism-based. Conditions: in vivo, 336 h, dose 8 µmol/kg, time 14 day.
Data set [9] can be described thus: Toxicity in nude mouse xenografted with human SK-BR-3 cells assessed as inflammatory cell infiltration in heart at 8 umol/kg, iv administered every 3 days for 14 days by H and E staining based analysis. In kind it is organism-based. Conditions: in vivo, 336 h, dose 8 µmol/kg, time 14 day.
Data set [10] is described as follows: Toxicity in nude mouse xenografted with human SK-BR-3 cells assessed as inflammatory cell infiltration in spleen at 8 umol/kg, iv administered every 3 days for 14 days by H and E staining based analysis. In kind it is organism-based. Particulars: in vivo, 336 h, dose 8 µmol/kg, time 14 day.
For another data set, the system named is SK-OV-3. Kind of data set: cells. Conditions: Homo sapiens, SK-OV-3, 48 h.
A further data set concerns MDA-MB-231. Kind of data set: cells. Conditions: Homo sapiens, MDA-MB-231, 48 h.

SMILES strings stand for the structures. Active and inactive are the calls of the source. The rule behind the calls is not given here. Peptide text beside a SMILES is read from it. * marks the point of attachment. X1 = CCC1(C(=O)OCCS*)C(=O)OCc2c1cc1n(c2=O)Cc2cc3ccccc3nc2-1

Description for MDA-MB-231: Cytotoxicity against HER-negative human MDA-MB-231 cells incubated for 48 hrs by CCK-8 assay
Description for SK-OV-3: Cytotoxicity against HER-positive human SK-OV-3 cells incubated for 48 hrs by CCK-8 assay

The IC50 is the concentration needed to halve the response being measured. Lower therefore signals greater potency. The compound `CC[C@H](C)[C@H](NC(=O)[C@@H]1CCCN1C(=O)[C@@H](NC(=O)[C@H](C)N)C(C)C)C(=O)N[C@@H](C)C(=O)N[C@@H](CCC(N)=O)C(=O)N[C@@H](CCCCN)C(=O)N[C@@H](CSSCCOC(=O)C1(CC)C(=O)OCc2c1cc1n(c2=O)Cc2cc3ccccc3nc2-1)C(=O)NCC(=O)N[C@@H](Cc1ccccc1)C(=O)N[C@@H](CC(C)C)C(=O)NCC(=O)N[C@@H](CC(N)=O)C(=O)N1CCC[C@H]1C(=O)N[C@@H](CC(N)=O)C(=O)N[C@@H](Cc1c[nH]c2ccccc12)C(=O)NCC(=O)N[C@@H](CCCNC(=N)N)C(=O)N[C@@H](CO)C(=O)N[C@@H](Cc1c[nH]c2ccccc12)C(=O)N[C@@H](Cc1ccc(O)cc1)C(=O)N[C@@H](CC(N)=O)C(=O)N[C@@H](CCC(N)=O)C(=O)N[C@@H](CCCNC(=N)N)C(=O)N[C@@H](Cc1ccccc1)C(=O)N[C@@H](CCCCN)C(N)=O` (some centres not stated) (H-AVPIAQKC(X1)GFLGNPNWGRSWYNQRFK-NH2) gave an IC50 at 48 h in data set [1] of 17.8 µM. Besides, the Activity in the data set with SK-BR-3 [2] was 9.46%; in the data set with SK-BR-3 [3], 3.42%; in data set [5], “Toxic”; in data set [6], “Non-Toxic”; in data set [7], “Non-Toxic”; in [8], “Non-Toxic”. The Activity result in [9] and in data set [10] was “Non-Toxic” each time. Also, in the data set with SK-BR-3 [4], the outcome was Active. The IC50 was determined as 2.5 µM with SK-OV-3 and 18.4 µM in the data set on MDA-MB-231.
